Test results taken from patent US8895504B2, “Amylin derivatives” (priority 2008, dated 2014).
*1 amine or outer side, *2 acyl side, *3 side chain or, on linkers, in order; H or OH if unused. Where a SMILES comes first, the peptide text is derived from it. Bridges are numbered along the chain shown (N, C = ends). The star is where a group is joined. C20 diacid = O=C(O)CCCCCCCCCCCCCCCCCCC(=O)*; γGlu = O=C(O)[C@H](CCC(=O)[*:2])N[*:1]

What was measured:
food intake = experiment: Pharmacological Assay (I) - efficacy testing on appetite, ad libitum fed rat model; assay type: in vivo, Sprague Dawley (SD) rats; conditions: 30 nmol/kg vs vehicle, ad libitum fed rats, n=5-7, 0-48 hours
Description: Assays Pharmacological Assay (I)—Experimental Protocol for Efficacy Testing on Appetite with an Amylin Derivative, Using an Ad Libitum Fed Rat Model. Sprague Dawley (SD) rats from Taconic Europe, Denmark are used for the experiments. The rats have a body weight 200-250 g at the start of experiment. The rats arrive at least 10-14 days before start of experiment to allow acclimatization to experimental settings. During this period the animals are handled at least 2 times. After arrival rats are housed individually for one week in a reversed light/dark phase (meaning that lights are off during daytime and on during nighttime) for two weeks. Since rats are normally active and eat their major part of their daily food intake during the dark period, rats are dosed in the morning right before lights are turned off. This set-up results in the lowest data variation and highest test sensitivity. The experiment is conducted in the rats' home cages and rats have free access to food and water throughout the acclimatization period and the experiment period. Each dose of derivative is tested in a group of 5-8 rats. A vehicle group of 6-8 rats is included in each set of testing. Rats are dosed once according to body weight with a 0.01-3 mg/kg solution administered intraperitoneally (ip), orally (po) or subcutaneously (sc). The time of dosing is recorded for each group. After dosing, the rats are returned to their home cages, where they then have access to food and water. The food consumption is recorded individually continuously by on-line registration or manually every hour for 7 hours, and then after 24 h and sometimes 48 h. At the end of the experimental session, the animals are euthanized. The individual data are recorded in Microsoft excel sheets. Outliers are excluded after applying the Grubbs statistical evaluation test for outliers, and the result is presented graphically using the GraphPad Prism program.

[1] = Assay (V) PK - determination of T½ in mini-pig; assay type: in vivo; conditions: minipig, sc; terminal plasma half-life, subcutaneous, approx 2 nmol/kg, male Göttingen mini-pigs
Method in brief: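 Male Göttingen mini-pigs (5–12 months, 7–35 kg) got a single s.c. neck injection of approx 2 nmol/kg; plasma sampled via central venous catheter predose to 240 h (some to 288 h). Amylin measured by sandwich ELISA; T½ = ln 2/λz from non-compartmental analysis of individual profiles.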

CC[C@H](C)[C@H](NC(=O)[C@@H]1CCCN1C(=O)CNC(=O)[C@H](Cc1ccccc1)NC(=O)[C@H](CC(N)=O)NC(=O)[C@H](CC(N)=O)NC(=O)[C@H](CO)NC(=O)[C@H](CO)NC(=O)[C@H](Cc1c[nH]cn1)NC(=O)[C@H](Cc1c[nH]cn1)NC(=O)[C@H](CC(C)C)NC(=O)[C@H](Cc1ccccc1)NC(=O)[C@H](CC(N)=O)NC(=O)[C@H](C)NC(=O)[C@H](CC(C)C)NC(=O)[C@H](CCCNC(=N)N)NC(=O)[C@H](CCC(N)=O)NC(=O)[C@@H](NC(=O)[C@H](C)NC(=O)[C@@H]1CSSC[C@H](NC(=O)[C@H](Cc2c[nH]cn2)NC(=O)[C@H](Cc2c[nH]cn2)NC(=O)[C@H](Cc2c[nH]cn2)NC(=O)CC[C@H](NC(=O)CCCCCCCCCCCCCCCCCCC(=O)O)C(=O)O)C(=O)N[C@@H](CC(N)=O)C(=O)N[C@@H]([C@@H](C)O)C(=O)N[C@@H](C)C(=O)N[C@@H]([C@@H](C)O)C(=O)N1)[C@@H](C)O)C(=O)N[C@@H](CC(C)C)C(=O)N1CCC[C@H]1C(=O)N1CCC[C@H]1C(=O)N[C@H](C(=O)N[C@@H](CC(N)=O)C(=O)N[C@H](C(=O)NCC(=O)N[C@@H](CO)C(=O)N[C@@H](CC(N)=O)C(=O)N[C@H](C(=O)N[C@@H](Cc1ccc(O)cc1)C(N)=O)[C@@H](C)O)C(C)C)[C@@H](C)O [Example 39, N-alpha-[(S)-4-Carboxy-4-(19-carboxynonadecanoylamino)butyryl]-His-His-[His1,His17]-pramlintide] ({C20 diacid-γGlu}-HHHCNTATCATQRLANFLHHSSNNFGPILPPTNVGSNTY-NH2; disulfide 4-9)
food intake over a period of 48 hours (food intake): effectively reducing food intake | half-life [1]: 60 h
